The source of these data is patent US20250115642A1, “PEPTIDE HAVING ANTIBACTERIAL, ANTI-INFLAMMATORY OR TISSUE REGENERATION ABILITY AND USE THEREOF” (priority 2022, published 2025).

One assay has as its system phosphorylated IκBα. The assay is described as follows: Western blot of plkBa in LPS-treated Raw264.7 cells. It is filed as cell-based, mouse. As for the experimental part: (§1) Raw264.7 cells were purchased from ATCC (American Type Culture Collection) and used in the experiment. Raw264.7 cells were cultured in a CO2 incubator at 37° C. supplied with 5% CO2 and 95% air using DMEM (Dulbecco's modified Eagle medium) medium supplemented with 10% FBS and 100 units/ml antibiotics (penicillin-streptomycin).
(§2) Raw264.7 cells were treated with 200 μM of the peptide having the amino acid sequence of SEQ ID NO: 1 for 30 minutes, and then treated with 1 μg/ml LPS (lipopolysaccharide, Merck, L3024). After 8 hours, the treated cells were collected, protease inhibitor cocktail and phosphatase inhibitor cocktail were added to Radioimmunoprecipitation assay buffer (RIPA buffer solution, Thermo Fisher, 89900), and the cells were treated to lyse the cells. After centrifuging the cell lysate and collecting the supernatant, the concentration of the cell lysate was measured using a bicinchoninic acid assay (BCA assay, Thermo Fisher, 23227), and RIPA buffer solution was added thereto to prepare the cell lysate to a final concentration of 5 mg/mL. Then, it was mixed with a buffer solution including 1M Tris-HCl (pH 6.8), 50% glycerol, and 10% SDS in a 4:1 ratio, and then sodium dodecyl sulfate-poly acrylamide gel electrophoresis (SDS-PAGE) was performed. […]

For assay [1], the system named is Aggregatibacter actinomycetemcomitans. The experiment in a line: Inhibiting growth of periodontitis-causing bacteria (absorbance 600 nm). Format: cell-based. As to conditions: Aa. As for the experimental part:
(§3) To evaluate the antibacterial activity, representative periodontitis-causing bacteria, Aggregatibacter actinomycetemcomitans and Porphyromonas gingivalis, were used. Each bacterium was inoculated into BHI (brain heart infusion) liquid medium and cultured in an anaerobic incubator at 37° C. and 120 rpm for 48 hours. After incubation, the peptide having the amino acid sequence of SEQ ID NO: 1 was treated at 100 μM, 250 μM, and 500 μM. As a positive control, minocycline (Merck, M9511) was inoculated at 500 ng/ml, and then 24 hours later, the absorbance was measured at 600 nm using a spectrophotometer to confirm a degree of bacterial growth.

Another assay has as its system Porphyromonas gingivalis. The assay is described as above. As to conditions: Pg. Format: cell-based. As for the experimental part:
as §3

In a further assay the test system is TNF-α. The assay is described as follows: ELISA of TNF-α secreted by LPS-treated THP-1 macrophages. Conditions: 1 μg/ml LPS, 200 μM peptide, 24 hours, compared with 20 ng/ml IL-4. It is filed as cell-based, human. As for the experimental part:
(§4) Anti-inflammatory activity was verified using human monocyte cell lines (THP-1, ATCC, TIB-202). In the case of monocyte cell lines, PMA (Phorbol 12-myristate 13-acetate, Merck, P1585) was inoculated to differentiate monocytes into macrophages, and then treated with 1 μg/ml LPS (lipopolysaccharide, Merck, L3024), an inflammation inducer. […] The amount of pro-inflammatory cytokines IL-6 (R&D system, D6050) and TNF-α secreted by cells present in the medium was confirmed through ELISA (enzyme-linked immunosorbent assay).
(ELISA stands for enzyme-linked immunosorbent assay.)

For the next assay, the system named is IL-6. The assay is described as follows: ELISA of IL-6 secreted by LPS-treated THP-1 macrophages. Format: cell-based, human. As to conditions: 1 μg/ml LPS, 200 μM peptide, 24 hours, compared with 20 ng/ml IL-4. As for the experimental part: as §4
The subject of the next assay is Raw264.7 cells. The experiment in a line: Cell penetration ability at the cellular level (confocal microscopy). It is filed as cell-based, mouse. Conditions: Rhodamine B labeled peptide, 50, 100 and 200 μM, 1 hour. As for the experimental part:
Raw264.7 cells were distributed 3×10^4 each into a 4-well chamber and cultured in DMEM medium for 24 hours to stabilize the cells. After 24 hours, fluorescently labeled peptide was added to the medium at concentrations of 50, 100, and 200 μM. After 1 hour of peptide treatment, a degree of penetration of the peptide into cells was observed using a confocal scanning fluorescence microscope. Cell nuclei were stained using 4′,6-diamidino-2-phenylindole (DAPI, Thermo Fisher, D1306). DIC represents the case observed under a general microscope, Nuceli represents the nucleus of a cell, Peptide represents the degree of penetration of a peptide bound to rhodamine B, and MERGE represents an image that overlaps images of DIC, Nuclei, and the penetrated peptide.

The test system of the next assay is phosphorylated NF-κB. The assay is described as follows: Western blot of pNFkB in LPS-treated Raw264.7 cells. It is filed as cell-based, mouse. As for the experimental part: as §1, §2
The test system of assay [2] is artificial biofilm of Aggregatibacter actinomycetemcomitans and Porphyromonas gingivalis. The assay is described as follows: Antibacterial activity in artificial biofilm on titanium disk (LIVE/DEAD staining). Format: cell-based. As to conditions: 24 hours after inoculation; 50 μg/ml = 29 μM. As for the experimental part:
Periodontitis-causing bacteria exist in the oral cavity in a form of a biofilm, and thus in order to imitate this, an artificial biofilm was created on the surface of a titanium disk using A. a. (Aggregatibacter actinomycetemcomitans) and P. g. (Porphyromonas gingivalis) bacteria. Saliva and bacteria were mixed on a titanium disk, placed in BHI liquid medium, and cultured in an anaerobic incubator at 37° C. After 72 hours, 50 μg/ml (=29 μM), 100 μg/ml (=58 μM), 250 μg/ml (=144 μM), and 500 μg/ml (=288 μM) peptides and 1 μg/ml minocycline as a positive control were inoculated. 24 hours later after inoculation, a titanium disk with biofilm formed on the surface was obtained and the biofilm was stained using the Filmtracer LIVE/DEAD Biofilm Viability Kit (Thermo Fisher, L10316). Live bacteria are stained green, and dead bacteria are stained red. The titanium disk was observed using a confocal scanning fluorescence microscope.

Setting [3] is: 200 μM peptide for 30 minutes, then 1 μg/ml LPS, 8 hours.

For the sequence “GKCSTRGRKSSRRKK (PEPTIDE HAVING ANTIBACTERIAL, …ON OR TISSUE …ON) [SEQ ID NO: 1, 15-mer peptide having antibacterial, anti-inflammatory and cell penetrating ability]”, in the assay with phosphorylated IκBα (setting [3]), the “expression of plkBa” value is “suppressed”. In addition, in the assay with phosphorylated IκBα (only the peptide, without LPS), the “effect on the expression of plkBa” value is listed as “no effect”. Further, the “survival rate of bacteria” value in assay [1] (at 250 μM or more, 24 hours) is listed as “less than or equal to 50%”. In assay [1] (peptide 500 μM vs minocycline 500 ng/ml), the “survival rate compared to minocycline” value was “higher than when treated with minocycline 500 ng/ml, but showed a similar effect”. Further, the “effect compared to minocycline” value in the assay on Porphyromonas gingivalis (all concentration ranges (100, 250, 500 μM) vs minocycline 500 ng/ml) is “better effect than minocycline”. For the same sequence, in the assay with Porphyromonas gingivalis (at 100 μM or more, 24 hours), the “survival rate of bacteria” value was “less than or equal to 50%”. In addition, the TNF-α value result in the assay with TNF-α is given as “lowered to a similar level as when treated with IL-4”. For the same sequence, the IL-6 value entry in the assay with IL-6 is recorded as “lowered to a similar level as when treated with IL-4”. In the assay with Raw264.7 cells, the “concentration dependence of fluorescence intensity in cells” value is on record as “as the concentration of peptide increased, the intensity of fluorescence also increased” and the “fluorescence of rhodamine B in cells” value was “fluorescence of rhodamine B (red) could be confirmed”. In addition, in the assay on phosphorylated NF-κB (setting [3]), the “expression of pNFκB” value is reported as “suppressed”. Besides, the “effect on the expression of pNFκB” value in the assay on phosphorylated NF-κB (only the peptide, without LPS) is on record as “no effect”. The “concentration at which killed bacteria (red) were observed in biofilm” value in assay [2] was no less than 50 µg/mL.
